Molecules are shown by their SMILES. Bounds are passed on as bounds.

The assay deals with T1, FGFR3 protein (Homo sapiens, UniProt P22607).
T1 construct: purchased Reaction Biology 1068
T1 sequence (P22607 23-806): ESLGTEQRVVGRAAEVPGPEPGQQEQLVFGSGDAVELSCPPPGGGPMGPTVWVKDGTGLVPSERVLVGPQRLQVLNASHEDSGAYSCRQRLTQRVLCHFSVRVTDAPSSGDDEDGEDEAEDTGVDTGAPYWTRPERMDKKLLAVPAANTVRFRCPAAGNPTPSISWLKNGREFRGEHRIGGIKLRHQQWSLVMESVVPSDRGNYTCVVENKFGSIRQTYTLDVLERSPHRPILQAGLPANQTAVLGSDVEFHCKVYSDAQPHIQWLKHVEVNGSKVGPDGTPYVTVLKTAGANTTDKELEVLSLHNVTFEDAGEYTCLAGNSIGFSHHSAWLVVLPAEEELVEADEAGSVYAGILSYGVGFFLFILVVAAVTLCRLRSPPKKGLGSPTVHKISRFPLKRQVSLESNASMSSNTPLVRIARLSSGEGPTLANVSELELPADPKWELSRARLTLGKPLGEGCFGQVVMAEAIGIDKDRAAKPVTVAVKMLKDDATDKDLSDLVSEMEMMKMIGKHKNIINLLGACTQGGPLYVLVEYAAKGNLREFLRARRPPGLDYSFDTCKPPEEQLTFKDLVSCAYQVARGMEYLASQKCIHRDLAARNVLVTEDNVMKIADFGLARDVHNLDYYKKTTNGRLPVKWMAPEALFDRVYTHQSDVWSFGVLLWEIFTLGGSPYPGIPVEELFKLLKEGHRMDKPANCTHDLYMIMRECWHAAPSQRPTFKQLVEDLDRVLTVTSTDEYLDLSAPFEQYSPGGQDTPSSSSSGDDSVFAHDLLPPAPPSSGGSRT
The experiment in a line: FGFR3 enzyme assay (KinEASE-TK HTRF kinase assay). In kind it is biochemical. The settings on record: 0.25 nM enzyme, ATP at Km, 15 min pre-incubation on ice, 30 min at 30° C. Here is the method: FGFR3 and FGFR1 Enzyme Assay
Enzyme activity was monitored using the KinEASE™-TK Assay Kit (Cisflio, Cat. No. 62TK0PEC) according to the manufacturer's instructions. All assays were performed at the respective KmATP for each kinase in KinEASE™ Kinase Buffer.
Titration of compounds were performed in a half-log manner in 100% dimethyl sulfoxide (DMSO) starting at 1 uM. Prior to the initiation of the reaction by adenosine triphosphate (ATP), FGFR1 protein and compounds were pre-incubated for 15 minutes at room temperature, and FGFR3 protein and compounds were pre-incubated on ice for 15 minutes. Reactions proceeded for 30 min at 30° C. Plates were quenched by the addition of the Anti-TK cryptate antibody/Streptavidin-XL665 mixture.
Ratios were converted to a percent of control (POC) using a ratiometric emission factor. One hundred POC was determined using no test compound, and 0 POC was determined in the presence of 1 uM of an appropriate control inhibitor.
For orientation: Time-resolved FRET reads energy transfer from a long-lived donor to a nearby acceptor.
As usually defined, the IC50 is the concentration needed to halve the response being measured. High values mean weaker potency, low ones greater potency. For `Cc1c(-c2cc(OC(c3ccccn3)C(C)(C)C)n3c(C#N)cnc3c2)nnn1C1CCN(C#N)CC1` (single isomer, unassigned) [Example 264, 7-[1-(1-Cyano-4-piperidyl)-5-methyl-triazol-4-yl]-5-[2,2-dimethyl-1-(2-pyridyl)propoxy] imidazo[1,2-a]pyridine-3-carbonitrile], the IC50 is less than 100 nM.
Next, `COc1cc(-c2cnn(C3CN([C@H]4CCCN(C#N)C4)C3)c2C)cn2ncc(C#N)c12` [Example 215, (3S)-3-[3-(4-[3-Cyano-4-methoxypyrazolo[1,5-a]pyridin-6-yl]-5-methylpyrazol-1-yl)azetidin-1-yl]piperidine-1-carbonitrile]: less than 50 nM; `Cc1c(-c2cc(OC(C)c3cncc(C(F)(F)F)n3)n3c(C#N)cnc3c2)nnn1C1CCN(C#N)CC1` (single isomer, unassigned) [Example 99, 7-[1-(1-Cyano-4-piperidyl)-5-methyl-triazol-4-yl]-5-[1-[6-(trifluoromethyl)pyrazin-2-yl]ethoxy]imidazo [1,2-a]pyridine-3-carbonitrile]: less than 50 nM; `Cc1c(-c2cc(OC(CO)c3ccc(F)cn3)n3c(Cl)cnc3c2)nnn1C1CCN(C#N)CC1` (single isomer, unassigned; isomer 2) [Example 47, 4-[4-[3-Chloro-5-[1-(5-fluoro-2-pyridyl)-2-hydroxy-ethoxy]imidazo[1,2-a]pyidine-7-yl]-5-methyl-triazol-1-yl]piperidine-1-carbonitrile, Isomer 2]: less than 50 nM.
The figure for `COc1cc(-c2cnn(C3CN(C4CCN(C#N)CC4(F)F)C3)c2C)cn2ncc(C#N)c12` (single isomer, unassigned) [Example 179, 4-[3-(4-[3-Cyano-4-methoxypyrazolo[1,5-a]pyridin-6-yl]-5-methylpyrazol-1-yl)azetidin-1-yl]-3,3-difluoropiperidine-1-carbonitrile] is less than 50 nM.
Next, `Cc1c(-c2cc(N[C@H](C)c3ccccn3)c3c(C#N)cnn3c2)cnn1C1CCN(C2CN(C#N)C2(C)C)CC1` (single isomer, unassigned) [Example 94]: less than 50 nM; `Cc1c(-c2cc(OC(CO)c3ccc(F)cn3)c3c(Cl)cnn3c2)nnn1C1CC(N2CCN(C#N)CC2)C1` (single isomer, unassigned) [Example 152, Cis-4-[3-[4-[3-Chloro-4-[1-(5-fluoro-2-pyridyl)-2-hydroxy-ethoxy]pyrazolo[1,5-a]pyridin-6-yl]-5-methyl-triazol-1-yl]cyclobutyl] piperazine-1-carbonitrile]: less than 50 nM; `Cc1c(-c2cc(O[C@H](C)C3CCC3)c3c(C#N)cnn3c2)cnn1C1CCN(C#N)CC1` [Example 195, 4-(4-[3-cyano-4-[(1R)-1-cyclobutylethoxy]pyrazolo[1,5-a]pyridin-6-yl]-5-methylpyrazol-1-yl)piperidine-1-carbonitrile]: less than 50 nM.
In turn, `Cc1c(-c2cc(OC(C)c3cccc4cnsc34)c3c(C#N)cnn3c2)nnn1C1CCN(C#N)CC1` (single isomer, unassigned; isomer 1) [Example 79, 4-[1-(1,2-benzothiazol-7-yl)ethoxy]-6-[1-(1-cyano-4-piperidyl)-5-methyl-triazol-4-yl]pyrazolo[1,5-a]pyridine-3-carbonitrile, Isomer 1] returned an IC50 of less than 50 nM.
Next, `COc1cc(-c2cnn(C3CCN(C4CN(C#N)C4(C)C)CC3)c2C)cn2ncc(C#N)c12` (single isomer, unassigned) [Example 173, 3-[4-(4-[3-Cyano-4-methoxypyrazolo[1,5-a]pyridin-6-yl]-5-methylpyrazol-1-yl)piperidin-1-yl]-2,2-dimethylazetidine-1-carbonitrile]: less than 50 nM.
As for `Cc1c(-c2cc(O[C@H](C)c3ccc(F)cn3)n3c(C#N)cnc3c2)nnn1C1CCN(C#N)CC1` [Example 170, 4-(4-[3-Cyano-5-[(1R)-1-(5-fluoropyridin-2-yl)ethoxy]imidazo[1,2-a]pyridin-7-yl]-5-methyl-1,2,3-triazol-1-yl)piperidine-1-carbonitrile], the IC50 is less than 50 nM.
Next, `CCC(Oc1cc(-c2nnn(C3CCN(C#N)CC3)c2C)cc2ncc(C#N)n12)c1ccc(F)cn1` (single isomer, unassigned; isomer 1) [Example 51, 7-[1-(1-Cyano-4-piperidyl)-5-methyl-triazol-4-yl]-5-[1-(5-fluoro-2-pyridyl)propoxy]imidazo[1,2-a]pyridine-3-carbonitrile, Isomer 1]: less than 50 nM; `Cc1c(-c2cc(OC(C)c3ccccc3C(=O)N(C)C)c3c(C#N)cnn3c2)nnn1C1CCN(C#N)CC1` (single isomer, unassigned; isomer 2) [Example 75, 2-[1-[3-cyano-6-[1-(1-cyano-4-piperidyl)-5-methyl-triazol-4-yl]pyrazolo[1,5-a]pyridin-4-yl]oxyethyl]-N,N-dimethyl-benzamide, Isomer 2]: less than 100 nM.
`Cc1c(-c2cc(OC(c3ccc(F)cn3)C3(F)CC3)c3c(C#N)cnn3c2)nnn1C1CCN(C#N)CC1` (centres unmarked) [Example 26, 6-[1-(1-Cyano-4-piperidyl)-5-methyl-triazol-4-yl]-4-[(1-fluorocyclopropyl)-(5-fluoro-2-pyridyl)methoxy]pyrazolo [1,5-a]pyridine-3-carbonitrile] came in with an IC50 of less than 50 nM.
The figure for `Cc1c(-c2cc(OC(C)c3ccccc3-c3ccon3)n3c(C#N)cnc3c2)nnn1C1CCN(C#N)CC1` (single isomer, unassigned) [Example 142, 7-[1-(1-Cyano-4-piperidyl)-5-methyl-triazol-4-yl]-5-[1-(2-isoxazol-3-ylphenyl)ethoxy] imidazo [1,2-a]pyridine-3-carbonitrile] is less than 100 nM.
Next, `Cc1c(-c2cc(OC(C)c3ccccc3S(C)(=O)=O)c3c(C#N)cnn3c2)cnn1C1CCN(C#N)CC1` (single isomer, unassigned; isomer 2) [Example 77, 6-[1-(1-Cyano-4-piperidyl)-5-methyl-pyrazol-4-yl]-4-[1-(2-methylsulfonylphenyl)ethoxy]pyrazolo[1,5-a]pyridine-3-carbonitrile, Isomer 2]: less than 100 nM.
In turn, `Cc1c(-c2cc(O[C@H](C)c3ccccc3C#N)c3c(Cl)cnn3c2)cnn1C1CCN(C#N)CC1` [Example 297, 4-[4-[3-Chloro-4-[(1R)-1-(2-cyanophenyl)ethoxy]pyrazolo[1,5-a]pyridin-6-yl]-5-methyl-pyrazol-1-yl]piperidine-1-carbonitrile] yielded an IC50 of less than 50 nM.
The figure for `Cc1c(-c2cc(O[C@H](C)c3ccccn3)n3c(C#N)cnc3c2)nnn1C1CC2(CCN(C#N)CC2)C1` [Example 212, 7-[1-(7-Cyano-7-azaspiro[3.5]nonan-2-yl)-5-methyl-triazol-4-yl]-5-[(1R)-1-(2-pyridyl)ethoxy]imidazo [1,2-a]pyridine-3-carbonitrile] is less than 50 nM; for `Cc1c(-c2cc(OCC(C)(O)c3ccc(F)cn3)c3c(Cl)cnn3c2)nnn1C1CCN(C#N)CC1` (single isomer, unassigned) [Example 156, 4-[4-[3-Chloro-4-[2-(5-fluoro-2-pyridyl)-2-hydroxy-propoxy]pyrazolo[1,5-a]pyridin-6-yl]-5-methyl-triazol-1-yl]piperidine-1-carbonitrile] it is less than 50 nM; for `Cc1c(-c2cc(O[C@H](C)c3ccccn3)n3c(C#N)cnc3c2)nnn1C1CCN(C#N)C(C2CC2)C1` (single isomer, unassigned) [Example 281] it is less than 50 nM.
Compound `Cc1c(-c2cc(OC(C)c3cc(C(F)(F)F)cnc3N3CCOCC3)c3c(C#N)cnn3c2)nnn1C1CCN(C#N)CC1` (centres unmarked) [Example 13, 6-[1-(1-Cyano-4-piperidyl)-5-methyl-triazol-4-yl]-4-[1-[2-morpholino-5-(trifluoromethyl)-3-pyridyl]ethoxy]pyrazolo [1,5-a]pyridine-3-carbonitrile] came in with an IC50 of less than 100 nM.
Next, `Cc1c(-c2cc(O[C@H](C)c3ccccn3)n3c(C#N)cnc3c2)nnn1C1CCN(C#N)CC1` [Example 201, 4-(4-[3-Cyano-5-[(1R)-1-(pyridin-2-yl)ethoxy]imidazo [1,2-a]pyridin-7-yl]-5-methyl-1,2,3-triazol-1-yl)piperidine-1-carbonitrile]: less than 50 nM; `Cc1c(-c2cc(OC(C)c3cc(Cl)cnn3)c3c(C#N)cnn3c2)nnn1C1CCN(C#N)CC1` (single isomer, unassigned; isomer 1) [Example 68, 4-[1-(5-Chloropyridazin-3-yl)ethoxy]-6-[1-(1-cyano-4-piperidyl)-5-methyl-triazol-4-yl]pyrazolo[1,5-a]pyridine-3-carbonitrile, Isomer 1]: less than 50 nM; `Cc1c(-c2cc(OC(CF)c3ccc(F)cn3)c3c(C#N)cnn3c2)nnn1C1CCN(C#N)CC1` (centres unmarked) [Example 22, 6-[1-(1-Cyano-4-piperidyl)-5-methyl-triazol-4-yl]-4-[2-fluoro-1-(5-fluoro-2-pyridyl)ethoxy]pyrazolo [1,5-a]pyridine-3-carbonitrile]: less than 50 nM.
The figure for `COc1cc(-c2cnn(C3CC4(CCN(C#N)CC4)C3)c2C)cn2ncc(C#N)c12` [Example 171, 2-(4-[3-Cyano-4-methoxypyrazolo[1,5-a]pyridin-6-yl]-5-methylpyrazol-1-yl)-7-azaspiro[3.5]nonane-7-carbonitrile] is less than 50 nM; for `Cc1c(-c2cc(OC(C)c3cncc4ccccc34)c3c(C#N)cnn3c2)nnn1C1CCN(C#N)CC1` (centres unmarked) [Example 24, 6-[1-(1-Cyano-4-piperidyl)-5-methyl-triazol-4-yl]-4-[1-(4-isoquinolyl)ethoxy] pyrazolo[1,5-a] pyridine-3-carbonitrile] it is less than 50 nM.
